26 molecules from US10266526B2, “Substituted 1,2,3-triazoles as SMYD inhibitors for treating cancer” (EPIZYME, INC., priority 2014, dated 2019) can be followed below.

Each structure is given as a SMILES string.

The target in the experiment is SMYD2 (Homo sapiens (Human), UniProt Q9NRG4). Nature of the experiment: SMYD2 biochemical assay (SMYD2 enzyme assay on peptide substrate, 3H-SAM Flashplate). The note with it: read-out: SMYD2 Biochem IC50; IC50 values are an average of n = 1 to n = 50.
SMYD2, sequence (Q9NRG4 whole entry): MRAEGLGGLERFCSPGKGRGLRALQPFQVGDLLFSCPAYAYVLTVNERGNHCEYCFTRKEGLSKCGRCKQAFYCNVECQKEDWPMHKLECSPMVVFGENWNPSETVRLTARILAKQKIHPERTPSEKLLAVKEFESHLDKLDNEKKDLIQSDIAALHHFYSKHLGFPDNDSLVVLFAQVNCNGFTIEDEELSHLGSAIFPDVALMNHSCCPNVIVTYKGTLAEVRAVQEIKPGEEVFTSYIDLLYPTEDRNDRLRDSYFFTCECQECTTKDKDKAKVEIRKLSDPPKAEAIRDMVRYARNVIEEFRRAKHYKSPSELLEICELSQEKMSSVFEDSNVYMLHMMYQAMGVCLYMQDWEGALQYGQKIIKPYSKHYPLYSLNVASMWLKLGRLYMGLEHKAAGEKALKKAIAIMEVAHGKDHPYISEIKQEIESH
Usually IC50 stands for the concentration needed to halve the response being measured. Regarding `O=C(NC1CN(Cc2cnn(CC3CCCCC3)c2)C1)c1cn(C2CC2)nn1` [compound 948, N-(1-((1-(cyclohexylmethyl)-1H-pyrazol-4-yl)methyl)azetidin-3-yl)-1-cyclopropyl-1H-1,2,3-triazole-4-carboxamide], the IC50 amounted to 360 nM.

As for `O=C(NC1CN(Cc2cnn(CC3CCOCC3)c2)C1)c1cn(C2CC2)nn1` [compound 949, 1-cyclopropyl-N-(1-((1-((tetrahydro-2H-pyran-4-yl)methyl)-1H-pyrazol-4-yl)methyl)azetidin-3-yl)-1H-1,2,3-triazole-4-carboxamide], the IC50 was found to be 2400 nM.

`O=C(NC1CN(Cc2cnn(CC3CCOC3)c2)C1)c1cn(C2CC2)nn1` (centres unmarked) [compound 950, 1-cyclopropyl-N-(1-((1-((tetrahydrofuran-3-yl)methyl)-1H-pyrazol-4-yl)methyl)azetidin-3-yl)-1H-1,2,3-triazole-4-carboxamide]: the IC50 came out at 2000 nM.

With `O=C(NC1CN(Cc2cnn(Cc3ccc(F)cc3)c2)C1)c1cn(C2CC2)nn1` [compound 951, 1-cyclopropyl-N-(1-((1-(4-fluorobenzyl)-1H-pyrazol-4-yl)methyl)azetidin-3-yl)-1H-1,2,3-triazole-4-carboxamide], the IC50 is 22 nM.

Take `CC(c1ccc2c(cnn2C)c1)N1CC(NC(=O)c2cn(C3CC3)nn2)C1` (centres unmarked) [compound 952, 1-cyclopropyl-N-(1-(1-(1-methyl-1H-indazol-5-yl)ethyl)azetidin-3-yl)-1H-1,2,3-triazole-4-carboxamide]: the 50% inhibitory concentration (IC50) was 1630 nM.

`O=C(NC1CN(Cc2ccc(Cn3cccn3)cc2)C1)c1cn(C2CC2)nn1` [compound 953, N-(1-(4-((1H-pyrazol-1-yl)methyl)benzyl)azetidin-3-yl)-1-cyclopropyl-1H-1,2,3-triazole-4-carboxamide]: the IC50 amounted to 5600 nM.

Turning to `O=C(NC1CN(Cc2ccc(Cn3cccn3)cc2)C1)c1cc(C2CC2)cnn1` [compound 954, N-(1-(4-((1H-pyrazol-1-yl)methyl)benzyl)azetidin-3-yl)-5-cyclopropylpyridazine-3-carboxamide], the IC50 was found to be 2400 nM.

As for `O=C(NC1CN(Cc2cnn(Cc3ccccc3)c2)C1)c1cc(C2CC2)on1` [compound 955, N-(1-((1-benzyl-1H-pyrazol-4-yl)methyl)azetidin-3-yl)-5-cyclopropylisoxazole-3-carboxamide], the IC50 stood at 73 nM.

`CC(c1cccc(OCC(C)(C)O)c1Cl)N1CC(NC(=O)c2cn(C3CC3)nn2)C1` (centres unmarked) [compound 956, N-(1-(1-(2-chloro-3-(2-hydroxy-2-methylpropoxy)phenyl)ethyl)azetidin-3-yl)-1-cyclopropyl-1H-1,2,3-triazole-4-carboxamide]: the IC50 is 2600 nM.

Turning to `COc1ccc(COc2ccc(C(C)N3CC(NC(=O)c4cn(C5CC5)nn4)C3)cc2)cc1` (centres unmarked) [compound 957, 1-cyclopropyl-N-(1-(1-(4-((4-methoxybenzyl)oxy)phenyl)ethyl)azetidin-3-yl)-1H-1,2,3-triazole-4-carboxamide], the IC50 turned out to be 160 nM.

For `COc1ccc(C(C)N2CC(NC(=O)c3cc(C4CC4)cnn3)C2)cc1` (centres unmarked) [compound 958, 5-cyclopropyl-N-(1-(1-(4-methoxyphenyl)ethyl)azetidin-3-yl)pyridazine-3-carboxamide], the half-maximal inhibitory concentration (IC50) is 600 nM.

Regarding `CC(c1ccc(OCCN(C)C)cc1)N1CC(NC(=O)c2cn(C3CC3)nn2)C1` (centres unmarked) [compound 959, 1-cyclopropyl-N-(1-(1-(4-(2-(dimethylamino)ethoxy)phenyl)ethyl)azetidin-3-yl)-1H-1,2,3-triazole-4-carboxamide], the IC50 was 2000 nM.

Consider `CC(c1ccc(OCCc2ccccc2)cc1)N1CC(NC(=O)c2cn(C3CC3)nn2)C1` (centres unmarked) [compound 960, 1-cyclopropyl-N-(1-(1-(4-phenethoxyphenyl)ethyl)azetidin-3-yl)-1H-1,2,3-triazole-4-carboxamide], for which the IC50 came out at 780 nM.

Consider `CC(C)N1CC(NC(=O)c2cc(C3CC3)ccn2)C1` [compound 961, 4-cyclopropyl-N-(1-isopropylazetidin-3-yl)picolinamide], for which the IC50 came out at 1300 nM.

Turning to `CC(c1cc(Cl)ccc1Cl)N1CC(NC(=O)c2cc(C3CC3)ccn2)C1` (centres unmarked) [compound 962, 4-cyclopropyl-N-(1-(1-(2,5-dichlorophenyl)ethyl)azetidin-3-yl)picolinamide], the IC50 was 480 nM.

Consider `CNC(=O)c1ccc(COc2ccc(C(C)N3CC(NC(=O)c4cn(C5CC5)nn4)C3)cc2)cc1` (centres unmarked) [compound 963, 1-cyclopropyl-N-(1-(1-(4-((4-(methylcarbamoyl)benzyl)oxy)phenyl)ethyl)azetidin-3-yl)-1H-1,2,3-triazole-4-carboxamide], for which the IC50 came to 970 nM.

For `CC(c1cccc(OCCO)c1Cl)N1CC(NC(=O)c2cc(C3CC3)ccn2)C1` (centres unmarked) [compound 964, N-(1-(1-(2-chloro-3-(2-hydroxyemoxy)phenyl)ethyl)azetidin-3-yl)-4-cyclopropylpicolinamide], the IC50 was found to be 10500 nM.

With `COc1cccc(C(C)N2CC(NC(=O)c3cc(C4CC4)cnn3)C2)c1Cl` (centres unmarked) [compound 965, N-(1-(1-(2-chloro-3-memoxyphenyl)ethyl)azetidin-3-yl)-5-cyclopropylpyridazine-3-carboxamide], the IC50 is 72 nM.

`O=C(NC1CN(Cc2cnn(Cc3ccccc3)c2)C1)c1cc(C2CC2)ccn1` [compound 966, N-(1-((1-benzyl-1H-pyrazol-4-yl)methyl)azetidin-3-yl)-4-cyclopropylpicolinamide]: the half-maximal inhibitory concentration (IC50) stood at 13 nM.

In the case of `O=C(NC1CN(Cc2ccc(OCc3ccccc3)cc2)C1)c1cc(C2CC2)ccn1` [compound 967, N-(1-(4-(benzyloxy)benzyl)azetidin-3-yl)-4-cyclopropylpicolinamide], the IC50 turned out to be 150 nM.

With `CC(c1ccc(OCC(F)(F)F)cc1)N1CC(NC(=O)c2cn(C3CC3)nn2)C1` (centres unmarked) [compound 968, 1-cyclopropyl-N-(1-(1-(4-(2,2,2-trifluoroethoxy)phenyl)ethyl)azetidin-3-yl)-1H-1,2,3-triazole-4-carboxamide], the IC50 is 1700 nM.

On to `CC(c1cc(Cl)ccc1OC(F)F)N1CC(NC(=O)c2cn(C3CC3)nn2)C1` (centres unmarked) [compound 970, N-(1-(1-(5-chloro-2-(difluoromethoxy)phenyl)ethyl)azetidin-3-yl)-1-cyclopropyl-1H-1,2,3-triazole-4-carboxamide], for which the IC50 came out at 5100 nM.

As to `Cc1ccc(COc2ccc(C(C)N3CC(NC(=O)c4cn(C5CC5)nn4)C3)cc2)cc1` (centres unmarked) [compound 971, 1-cyclopropyl-N-(1-(1-(4-((4-methylbenzyl)oxy)phenyl)ethyl)azetidin-3-yl)-1H-1,2,3-triazole-4-carboxamide], the IC50 came out at 88 nM.

As to `O=C(NC1CN(Cc2ccc(OCc3cccnc3)cc2)C1)c1cn(C2CC2)nn1` [compound 972, 1-cyclopropyl-N-(1-(4-(pyridin-3-ylmemoxy)benzyl)azetidin-3-yl)-1H-1,2,3-triazole-4-carboxamide], the IC50 amounted to 1300 nM.

As to `CC(c1cccc(OCC(O)CO)c1Cl)N1CC(NC(=O)c2cn(C3CC3)nn2)C1` (centres unmarked) [compound 973, N-(1-(1-(2-chloro-3-(2,3-dihydroxypropoxy)phenyl)ethyl)azetidin-3-yl)-1-cyclopropyl-1H-1,2,3-triazole-4-carboxamide], the IC50 is over 50000 nM.

Turning to `CC(c1ccc(COc2ccccc2)cc1)N1CC(NC(=O)c2cn(C3CC3)nn2)C1` (centres unmarked) [compound 974, 1-cyclopropyl-N-(1-(1-(4-(phenoxymethyl)phenyl)ethyl)azetidin-3-yl)-1H-1,2,3-triazole-4-carboxamide], the 50% inhibitory concentration (IC50) came out at 870 nM.
